Experimental data as given in PubChem BioAssay AID2060504 (Molecular Pharmacology Branch, DTP, NCI, 2025).
Values joined by “and” are separate entries in the source; they are usually repeats but may differ in a detail not shown here. Equal values may be shown once.

Tested on: 636577-100-R-J1-PDC complex spheroid viability
Test: Anticancer human tumor 636577-100-R-J1-PDC patient-derived endometrial adenocarcinoma cell line growth inhibition [GQUAD]
Conditions: for viability, T/C: stronger effect = lower value
From the text: DNA G-quadruplex Stabilizer Agents in Combinations in Complex Spheroids
A high-throughput screen of multi-cell type tumor spheroids was designed to identify active combinations of DNA G-quadruplex stabilizer agents and targeted small molecules. Complex spheroids include a stromal component modeled by human endothelial cells (HUVEC) and fibroblasts modeled by human mesenchymal stem cells (MSCs). The concentration ranges selected for each drug and investigational agent were based upon clinically achievable concentrations if the clinical Cmax of the agent was known.
Compounds. The drugs and investigational agents: pidnarulex (CX-5461; NSC782164), APTO-253 (NSC789042), BRACO-19 (NSC847499), peposertib (NSC802822), ceralasertib (NSC780249), elimusertib (NSC800525), camonsertib (NSC841442), AZD-1390 (NSC803789), olaparib (NSC753686), talazoparib (NSC767125), ART-558 (NSC835418), sotorasib (NSC818433), MRTX-1133 (NSC836407), SN-38 (NSC673596), topotecan (NSC609699), etoposide (NSC141540), doxorubicin (NSC123127), gemcitabine (NSC613327), 5-fluorouracil (NSC19893), paclitaxel (NSC125973), vemurafenib (NSC761431), panobinostat (NSC761190), R-306465 (JNJ-16241199; NSC773264), adavosertib (NSC754352), TP-3654 (NSC805149), carboplatin (NSC241240), KSQ-4279 (NSC840948), and staurosporine (NSC755774) were obtained from the National Cancer Institute (NCI) Developmental Therapeutics Program Chemical Repository (34). The FDA-approved anticancer drug set is available from the NCI Developmental Therapeutics Program. […] The stock solutions were prepared in dimethyl sulfoxide (DMSO, Sigma-Aldrich, St. Louis, MO, cat. D2650) at 800-fold the tested concentration and stored at -70 degrees C prior to their use. All drugs and investigational agents were tested over a range starting from a high concentration at or near the clinical Cmax and decreasing in half-log increments. If the clinical Cmax for an agent had not been determined, the highest concentration tested was 10 microM.
2.3 Cell Culture. All cells were maintained in an incubator at 37 degrees C and 5% CO2 with 95% humidity. The PDC lines were cultured according to standard operating procedures established by the NCI PDMR. All PDCs were thawed and cultured in Matrigel-coated flasks prepared with a working solution of 1X Ham's F-12 nutrient mix, without supplementation (Invitrogen, cat. 11765054), 100 U/mL penicillin-streptomycin (Invitrogen, cat. 15140122), and 2.5% Matrigel (Corning Inc., cat. 354248) for the first three passages. The 857933-349-R-J2-PDC line was cultured in 6C/Colon 1B media, which includes advanced DMEM/F-12 (Thermo Fisher Scientific, cat. 12634028), 10 mM HEPES (Thermo Fisher Scientific, cat. 15630080), 1X GlutaMAX supplement (Thermo Fisher Scientific, cat. 35050061), 0.1 mg/mL primocin (InvivoGen, cat. ant-pm-2), 10% defined fetal bovine serum, heat inactivated (HyClone Laboratories Inc., cat. SH30070.03HI), 50% L-WRN conditioned media (ATCC, cat. CRL-3276), 1.25 mM N-Acetyl-L-cysteine (Sigma-Aldrich, cat. A9165), 10 mM nicotinamide (Sigma-Aldrich, cat. N0636), 1X B-27 supplement (Thermo Fisher Scientific, cat. 17504044), 1X N-2 supplement (Thermo Fisher Scientific, cat. 17502048), 10 microM Y-27632 dihydrochloride (Tocris Bioscience, cat. 1254), and 50 ng/mL human EGF recombinant protein (Thermo Fisher Scientific, cat. PHG0311). The 485176-168-R4-J1-PDC line was cultured in Panc media, which includes all 6C/Colon 1B media components plus 100 ng/mL human FGF-10 (Thermo Fisher Scientific, cat. 100-26), 500 nM SB-431542 (Selleckchem, cat. S1067), and gastrin (Tocris, cat. 3006).
[…]
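Note: viability read after seven days of drug exposure.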
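Throughout, for viability, T/C: luminescence signal used as a proxy for viable cells; 100% = DMSO vehicle control wells.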

Compound: C=CC(=O)N1CCN(c2nc(=O)n(-c3c(C)ccnc3C(C)C)c3nc(-c4c(O)cccc4F)c(F)cc23)C(C)C1 (stereo not drawn) + CN(C)c1ccc(Nc2c3ccc(NC(=O)CCN4CCCC4)cc3nc3cc(NC(=O)CCN4CCCC4)ccc23)cc1
- IC50 (curve of first compound, second compound 0.0316 µM): > 10000 nM
- IC50 (curve of first compound, second compound 0.1 µM): > 10000 nM
- IC50 (curve of first compound, second compound 0.316 µM): > 10000 nM
- IC50 (curve of first compound, second compound 1 µM): > 10000 nM
- IC50 (curve of first compound, second compound 3.16 µM): < 31.6 nM
- IC50 (curve of first compound, second compound 10 µM): < 31.6 nM
- viability, T/C (second compound 0.0316 µM, first compound 0.0316 µM): 82.5%
- viability, T/C (second compound 0.0316 µM, first compound 0.1 µM): 60.8%
- viability, T/C (second compound 0.0316 µM, first compound 0.316 µM): 114%
- viability, T/C (second compound 0.0316 µM, first compound 1 µM): 75.2%
- viability, T/C (second compound 0.0316 µM, first compound 3.16 µM): 91.9%
- viability, T/C (second compound 0.0316 µM, first compound 10 µM): 64.8%
- viability, T/C (second compound 0.1 µM, first compound 0.0316 µM): 73.5%
- viability, T/C (second compound 0.1 µM, first compound 0.1 µM): 67.1%
- viability, T/C (second compound 0.1 µM, first compound 0.316 µM): 78.9%
- viability, T/C (second compound 0.1 µM, first compound 1 µM): 73%
- viability, T/C (second compound 0.1 µM, first compound 3.16 µM): 108%
- viability, T/C (second compound 0.1 µM, first compound 10 µM): 75.6%
- viability, T/C (second compound 0.316 µM, first compound 0.0316 µM): 79.5%
- viability, T/C (second compound 0.316 µM, first compound 0.1 µM): 63.9%
- viability, T/C (second compound 0.316 µM, first compound 0.316 µM): 88%
- viability, T/C (second compound 0.316 µM, first compound 1 µM): 81.2%
- viability, T/C (second compound 0.316 µM, first compound 3.16 µM): 97.5%
- viability, T/C (second compound 0.316 µM, first compound 10 µM): 67.4%
- viability, T/C (second compound 1 µM, first compound 0.0316 µM): 85.9%
- viability, T/C (second compound 1 µM, first compound 0.1 µM): 54.3%
- viability, T/C (second compound 1 µM, first compound 0.316 µM): 76.3%
- viability, T/C (second compound 1 µM, first compound 1 µM): 96.9%
- viability, T/C (second compound 1 µM, first compound 3.16 µM): 94.5%
- viability, T/C (second compound 1 µM, first compound 10 µM): 60.3%
- viability, T/C (second compound 3.16 µM, first compound 0.0316 µM): 42%
- viability, T/C (second compound 3.16 µM, first compound 0.1 µM): 43.9%
- viability, T/C (second compound 3.16 µM, first compound 0.316 µM): 35.4%
- viability, T/C (second compound 3.16 µM, first compound 1 µM): 53.6%
- viability, T/C (second compound 3.16 µM, first compound 3.16 µM): 43.7%
- viability, T/C (second compound 3.16 µM, first compound 10 µM): 28.9%
- viability, T/C (second compound 10 µM, first compound 0.0316 µM): 6.52%
- viability, T/C (second compound 10 µM, first compound 0.1 µM): 5.91%
- viability, T/C (second compound 10 µM, first compound 0.316 µM): 6.86%
- viability, T/C (second compound 10 µM, first compound 1 µM): 6.43%
- viability, T/C (second compound 10 µM, first compound 3.16 µM): 3.58%
- viability, T/C (second compound 10 µM, first compound 10 µM): 0.96%

Compound: C#Cc1c(F)ccc2cc(O)cc(-c3ncc4c(N5CC6CCC(C5)N6)nc(OCC56CCCN5CC(F)C6)nc4c3F)c12 (stereo not drawn)
- viability, T/C (compound 0.0316 µM): 99.5% and 96.3% and 104%
- viability, T/C (compound 0.1 µM): 88.7% and 68.7% and 103%
- viability, T/C (compound 0.316 µM): 77.1% and 102% and 113%
- viability, T/C (compound 1 µM): 83% and 87.9% and 71.9%
- viability, T/C (compound 3.16 µM): 66.9% and 56.5% and 70.4%
- viability, T/C (compound 10 µM): 49.2% and 39.9% and 35.7%
- IC50 (curve of compound): > 10000 nM and 4970 nM and 5760 nM

Compound: C=CC(=O)N1CCN(c2nc(=O)n(-c3c(C)ccnc3C(C)C)c3nc(-c4c(O)cccc4F)c(F)cc23)C(C)C1 (stereo not drawn)
- viability, T/C (compound 0.0316 µM): 103% and 110%
- viability, T/C (compound 0.1 µM): 55.1% and 117%
- viability, T/C (compound 0.316 µM): 105%
- viability, T/C (compound 1 µM): 107% and 90.3%
- viability, T/C (compound 3.16 µM): 72.6% and 85.3%
- viability, T/C (compound 10 µM): 70.6% and 66.2%
- IC50 (curve of compound): > 10000 nM

Compound: Cn1ncnc1[C@H]1c2n[nH]c(=O)c3cc(F)cc(c23)N[C@@H]1c1ccc(F)cc1
- viability, T/C (compound 0.000999 µM): 116% and 71.8% and 77.3%
- viability, T/C (compound 0.00316 µM): 99% and 81.1% and 72.7%
- viability, T/C (compound 0.00999 µM): 94.9% and 91.4% and 85.6%
- viability, T/C (compound 0.0316 µM): 69.3% and 56% and 68.8%
- viability, T/C (compound 0.0999 µM): 44.9% and 52.2% and 43.4%
- viability, T/C (compound 0.316 µM): 29.7% and 35.6% and 29.1%
- IC50 (curve of compound): 83.4 nM and 55.7 nM and 74.1 nM

Compound: CC1COCCN1c1cc(C2(O)CC3CCC(C2)O3)c2cnn(-c3ccn[nH]3)c2n1 (stereo not drawn)
- viability, T/C (compound 0.0316 µM): 45.5% and 69.8% and 52.9%
- viability, T/C (compound 0.1 µM): 36.3% and 25.4% and 31.3%
- viability, T/C (compound 0.316 µM): 18.9% and 15.5% and 18%
- viability, T/C (compound 1 µM): 8.03% and 6.74% and 6.72%
- viability, T/C (compound 3.16 µM): 3.6% and 2.83% and 2.96%
- viability, T/C (compound 10 µM): 1.1% and 0.71% and 1.08%
- IC50 (curve of compound): < 31.6 nM and 54.1 nM and 36.7 nM

Compound: Nc1ccn(C2OC(CO)C(O)C2(F)F)c(=O)n1 (stereo not drawn)
- viability, T/C (compound 0.0316 µM): 15% and 15.2%
- viability, T/C (compound 0.1 µM): 14.2% and 11.3%
- viability, T/C (compound 0.316 µM): 17.7% and 13.5%
- viability, T/C (compound 1 µM): 16.3% and 13.1%
- viability, T/C (compound 3.16 µM): 13.8% and 14.3%
- viability, T/C (compound 10 µM): 14.2% and 11%
- IC50 (curve of compound): < 31.6 nM

Compound: O=C(c1cc(Cc2n[nH]c(=O)c3ccccc23)ccc1F)N1CCN(C(=O)C2CC2)CC1
- viability, T/C (compound 0.0316 µM): 91.1% and 68.5%
- viability, T/C (compound 0.1 µM): 89.5% and 65.9%
- viability, T/C (compound 0.316 µM): 96.8% and 82.5%
- viability, T/C (compound 1 µM): 62.5% and 63.3%
- viability, T/C (compound 3.16 µM): 56.2% and 45.9%
- viability, T/C (compound 10 µM): 37.6% and 29%
- IC50 (curve of compound): 2510 nM and 2430 nM

Compound: CC1COCCN1c1cc(-c2ccnn2C)c2ccnc(-c3ccn[nH]3)c2n1 (stereo not drawn)
- viability, T/C (compound 0.0316 µM): 85.1% and 78.3% and 94.5%
- viability, T/C (compound 0.1 µM): 52.2% and 35.1% and 51.9%
- viability, T/C (compound 0.316 µM): 29.6% and 23.1% and 25.6%
- viability, T/C (compound 1 µM): 15.7% and 12.7% and 13%
- viability, T/C (compound 3.16 µM): 5.78% and 5.92% and 5.17%
- viability, T/C (compound 10 µM): 3.61% and 3.66% and 3.51%
- IC50 (curve of compound): 113 nM and 71 nM and 109 nM

Compound: COc1ccc([C@@H](O)c2cc(-c3ncnc4cc(N5CCOCC5)ccc34)c(F)cc2Cl)nn1
- viability, T/C (compound 0.0316 µM): 93% and 95.4% and 33.8%
- viability, T/C (compound 0.1 µM): 96.2% and 61.9% and 97.4%
- viability, T/C (compound 0.316 µM): 86.4% and 88.9% and 65.4%
- viability, T/C (compound 1 µM): 55.2% and 54.6% and 49.7%
- viability, T/C (compound 3.16 µM): 42.5% and 43.1% and 36.6%
- viability, T/C (compound 10 µM): 28.1% and 22.5% and 25.5%
- IC50 (curve of compound): 1580 nM and 1970 nM and 1170 nM
